Results: article PMC9914633 (International Journal of Environmental Research and Public …, 2023)

Biological target: T1, xoSNAT1 (Xanthomonas oryzae, UniProt A0ACG7R854)
T1 construct: gene DZA53_20490
Conditions: serotonin 0.5 mM; acetyl-CoA 0.5 mM; 100 mM potassium phosphate pH 8.8; 35 °C

## NCCc1c[nH]c2ccc(O)cc12 [serotonin]
  LC-MS/MS of serotonin and product: GST and xoSNAT2 have no SNAT activity, while xoSNAT1 showed only low activity
